Test results: BindingDB's records for doi:10.7270/Q2959G0B (Nmmlsc, 2009)

Molecular target: Ras-related C3 botulinum toxin substrate 1 (Mus musculus, UniProt P63001)
Experiment: blockers of fluorescent GTP loading onto wildtype Rac1 – biochemical, pyrazoline analogs, multiplex, flow cytometry, Ki, SAR follow-up (AID 2055)
Conditions: not given

`O=S(=O)(O)c1ccc(N2N=C(c3ccccc3)CC2c2ccccc2)cc1` (stereo unspecified) [UNM-0000305834] showed an EC50 of 30 µM.

Same assay, conditions: inactive by the depositor's call

`COc1ccc(C2CC(c3ccc(Cl)cc3)=NN2c2ccccc2)cc1OC` (stereo unspecified) [UNM-0000305858] and `COc1ccc(C2=NN(c3ccccc3)C(c3ccc(Cl)cc3)C2)cc1` (stereo unspecified) [UNM-0000305833] are the same in EC50: 30 µM for the first, 30 µM for the second.

`NS(=O)(=O)c1ccc(N2N=C(c3ccccc3)CC2c2ccccc2)cc1` (stereo unspecified) [4-(3,5-diphenyl-3,4-dihydropyrazol-2-yl)benzenesulfonamide] and `Cc1ccccc1C1CC(c2ccccc2)=NN1c1ccc(S(N)(=O)=O)cc1` (stereo unspecified) [UNM-0000306148] are the same in EC50: 30 µM for the first, 30 µM for the second.

`O=[N+]([O-])c1cccc(C2C[C-](c3ccccc3)N=[N+]2c2ccccc2)c1` (stereo unspecified) [UNM-0000305857] and `O=[N+]([O-])c1ccc([N+]2=N[C-](c3ccccc3)CC2c2ccccc2)cc1` (stereo unspecified) are the same in EC50: 30 µM for the first, 30 µM for the second.

`Cc1onc(-c2ccccc2)c1-c1ccc(S(N)(=O)=O)cc1` and `NS(=O)(=O)c1ccc(N2N=C(c3ccccc3)CC2c2cccc(Br)c2)cc1` (stereo unspecified) [UNM-0000306147] are the same in EC50: 30 µM for the first, 30 µM for the second.

`COc1ccccc1C1CC(c2ccccc2)=NN1c1ccccc1` (stereo unspecified) and `Clc1ccc(N2N=C(c3ccccc3)CC2c2ccccc2)cc1` (stereo unspecified) are the same in EC50: 30 µM for the first, 30 µM for the second.

Compared with `FC(F)(F)c1ccccc1C1CC(c2ccc(Br)cc2)=NN1c1ccccc1` (stereo unspecified) [5-(4-bromophenyl)-2-phenyl-3-[2-(trifluoromethyl)phenyl]-3,4-dihydropyrazole], `NS(=O)(=O)c1ccc(N2N=C(c3ccc(Br)cc3)CC2c2ccc(F)cc2)cc1` (stereo unspecified) [4-[5-(4-bromophenyl)-3-(4-fluorophenyl)-3,4-dihydropyrazol-2-yl]benzenesulfonamide] is 2100-fold lower in EC50: 30 µM for the first, 0.014 µM for the second. The second is the more potent here.

`COc1ccc(C2=NN(c3cccc(F)c3)C(c3ccc(Cl)cc3)C2)cc1` (stereo unspecified) [3-(4-chlorophenyl)-2-(3-fluorophenyl)-5-(4-methoxyphenyl)-3,4-dihydropyrazole] and `COc1ccc(C2CC(c3cccc(Cl)c3)=NN2c2ccc(S(N)(=O)=O)cc2)cc1` (stereo unspecified) [UNM-0000306134] are the same in EC50: 30 µM for the first, 30 µM for the second.

`COc1ccc(C2CC(c3cccc(Br)c3)=NN2c2ccc(S(N)(=O)=O)cc2)cc1` (stereo unspecified) [UNM-0000306113] and `COc1ccc(C2CC(c3ccccc3C)=NN2c2ccc(S(N)(=O)=O)cc2)cc1` (stereo unspecified) [UNM-0000306152] are the same in EC50: 30 µM for the first, 30 µM for the second.

`COc1ccc(C2=NN(c3ccc(S(N)(=O)=O)cc3)C(c3ccc(OC)cc3)C2)cc1` (stereo unspecified) [4-[3,5-bis(4-methoxyphenyl)-3,4-dihydropyrazol-2-yl]benzenesulfonamide] and `COc1ccc(C2=NN(c3ccc(Cl)c(Cl)c3)C(c3ccc(OC)cc3)C2)cc1` (stereo unspecified) [2-(3,4-dichlorophenyl)-3,5-bis(4-methoxyphenyl)-3,4-dihydropyrazole] are the same in EC50: 30 µM for the first, 30 µM for the second.

`COc1ccc(C2CC(C(C)(C)C)=NN2c2ccc(S(N)(=O)=O)cc2)cc1` (stereo unspecified) [KUC103450N] and `COc1ccc(C2CC(c3ccccc3)=NN2c2cccc(S(N)(=O)=O)c2)cc1` (stereo unspecified) [3-[3-(4-methoxyphenyl)-5-phenyl-3,4-dihydropyrazol-2-yl]benzenesulfonamide] are the same in EC50: 30 µM for the first, 30 µM for the second.
